# Results published in patent US20220040263A1, “COMPANION DIAGNOSTIC FOR COMBINATION LENALIDOMIDE AND ERYTHROPOIETIN TREATMENT” (H. Lee Moffitt Cancer Center and Research Institute, Inc., priority 2016, published 2022).
# Where two headings read alike, the source gives them in different places.
# Columns and labels:
# STAT5 [1] = test: STAT5 phosphorylation in UT7 cells by Western immunoblot; assay type: cell-based
# Protocol: FIGS. 2A and 2B show potentiation of STAT 5 activation by lenalidomide. […] Whole cell lysates were assayed for actin (Sigma), STAT5 and phospho-STAT5 (Cell Signaling) by Western immunoblot as previously described. […] K562 leukemia cells served as a positive control.
# To determine if lenalidomide modulates EPO-R signaling to enhance cytokine induced clonogenic response, STAT5 phosphorylation and its nuclear trans-activation was evaluated after treatment with either lenalidomide or EPO alone, or the combination [FIG. 2A].
# STAT5 [2] = test: EPO-induced phospho-STAT5 MFI in CD71+ primary MDS cells by flow cytometry; assay type: cell-based, human
# Protocol: BM-MNC were serum deprived in IMDM and 0.4% BSA for 1 hour, then treated as described in FIG. 5. RHu-EPO stimulated cells were treated 5 U/ml×15 minutes at 37° C. Cells were fixed in BD Cytofix (Beckon Dickenson) ×10 minutes, washed in BD Stain Buffer then re-suspended in ice cold 90% methanol. After washing ×2, cells were stained with anti-pSTAT5-phycoerthryin (PE) conjugated antibody and CD71-allophycocyanin (APC) conjugated antibody [20 μg/10^6 cells]. Cells were washed ×2 with stain buffer before transfer to FACScan tubes and analysis on the FACScan flow cytometer. The gated CD71+ cell population accounted for 11.35% of BM-MNC. Results reflect phospho-STAT5:PE MFI in a representative patient specimen. Anti-pSTAT5, CD71-APC and CD34-APC antibodies were purchased from BD-Pharmingen.
# To confirm that lenalidomide enhances STAT5 phosphorylation in erythroid precursors from primary BM specimens, BM specimens were evaluated from Low- or Intermediate-1 risk MDS by flow cytometry. As in the UT7 cell line, lenalidomide increased EPO-induced phosphorylation of STAT5 in CD71+ erythroid precursors, whereas lenalidomide alone had no effect on STAT5 phosphorylation [FIG. 3]. The STAT5 phosphorylation delta (PD), i.e., the increase in mean fluorescence intensity (MFI) for EPO-induced STAT5 phosphorylation with the addition of lenalidomide compared to EPO alone was 43.5 relative MFI units, representing a 24% increase in pSTAT5 MF.
# MDS BM-MNC = test: Clonogenic (colony forming) assay of MDS BM-MNC pretreated with lenalidomide, plated with EPO; assay type: cell-based, human
# Protocol: FIGS. 1A and 1B show Lenalidomide potentiates clonogenic response to […]. […] Colonies were scored after 14 days incubation and the growth of bone marrow colony-forming unit granulocyte, erythroid, macrophage, megakaryocyte (CFU-GEMM); burst-forming unit-erythroid (BFU-E); and colony-forming unit granulocyte-macrophage (CFU-GM) assessed. […] Cells were then plated in methylcellulose+10% FBS, 2000 cells/well, with or without erythropoietin (EPO). Colonies were scored at day seven.
# To investigate the mechanism by which lenalidomide promotes erythropoiesis, the effect of lenalidomide on erythroid progenitor colony forming capacity was evaluated in lower risk patients [FIG. 1A]. Two-hour exposure to lenalidomide prior to initiation of BM-MNC in methylcellulose culture enhanced BFU-E formation over a concentration range of 0.001-1.0 μM. […] Erythroid progenitor cell lines were next evaluated to identify a model for investigation of the mechanism of lenalidomide's erythroid promoting effect.
# Csk = Csk and phospho-Lyn507 in UT7 cells by Western immunoblot; assay type: cell-based; conditions: lenalidomide alone or combined with EPO
# Protocol: Serum starved UT7 cells were treated with either vehicle alone (control), CC5013 (2 hours), EPO (30 minutes), or CC5013 followed by addition of EPO at the concentrations indicated. Cells were lysed and assayed for β-actin (Sigma), phospho-Lyn507, total Lyn and Csk (Cell Signaling) by Western immunoblot as described previously. Protein loading was normalized to β-actin, and immunoblot signals of phosphorylated Lyn were normalized to total Lyn and actin by band densitometry.
# The Lyn/Src signal response is inhibited through both Csk phosphorylation of the C-terminal tyrosine residue enabled by SFK phosphorylation of the Csk-binding protein (Csk/Pag), and by the action of the CD45 PTP that dephosphorylatse the SFK activation loop tyrosine. There were minor changes in phosphorylation of the C-terminal tyrosine of Src and Lyn kinases despite significant increases in phosphorylation of the Src activation loop tyrosine [FIGS. 5 and 6]. A minor reduction in C-terminal tyrosyl phosphorylation relative to total Lyn was associated with a decrease in total Csk that was apparent with treatment with either lenalidomide alone or when combined with EPO [FIG. 6].
# STAT5 [3] = test: STAT5 DNA binding by EMSA in UT7 nuclear extracts; assay type: cell-based; conditions: combined lenalidomide and EPO treatment
# [4] = system: azanucleoside-naive, transfusion-dependent LR, non-del(5q) MDS patients; conditions: cited from earlier work
# [5] = system: LR non-del(5q) MDS patients refractory to, or not candidates for, rhEpo; test: Randomized phase III trial LEN vs LEN+EA; assay type: in vivo, human
# Text: Treatment with rhu-Epo ameliorates anemia in a subset of LR-MDS patients, however, effective salvage therapy is limited. LEN promotes erythroid lineage competence and expansion of primitive erythroid precursors in vitro. In the MDS-002 and MDS-005 trials, treatment with LEN improved erythropoiesis, yielding RBC transfusion-independence in 26% of azanucleoside-naive, transfusion-dependent (TD) LR, non-del(5q) MDS patients for a median of 10.2 and 7.75 months, respectively. LEN restores Epo-responsiveness in MDS progenitors by inducing the formation of lipid rafts enriched for signaling competent JAK2/Epo-receptor complexes with exclusion of large isoforms of the JAK2/lyn kinase-phosphatase CD45 generated by alternative splicing (McGraw K, et. al. PLoS One 2014). […] To test this hypothesis, randomized phase III trial was performed comparing treatment with LEN to LEN+EA in LR non-del(5q) MDS patients who were refractory to, or not candidates for treatment with rhEpo.
# Patients with Low or Intermediate-1 (Int-1) risk IPSS MDS with hemoglobin <9.5 g/dL who were unresponsive to rhEpo treatment or were TD (>2 units/mo) with serum Epo >500 mU/mL were eligible for study. Patients were stratified by serum Epo level and prior rhEpo (EA vs. darbepoetin vs. none) then randomized to treatment with LEN 10 mg/d×21d q4 wk (Arm A) or LEN+EA 60,000 U SC/wk (Arm B). Primary endpoint was IWG 2006 major erythroid response (MER) rate after 4 cycles. Arm A non-responders were offered cross-over to combined therapy. Secondary endpoints included analysis of response biomarkers.
# [6] = two-hour exposure prior to methylcellulose culture
compound,measurement,setting,value
"Nc1cccc2c1CN(C1CCC(=O)NC1=O)C2=O (centres unmarked) [lenalidomide, 3-(4-amino-1-oxo-1,3-dihydro-2H-isoindol-2-yl)piperidine-2,6-dione]",EPO-induced phosphorylation of STAT5,"STAT5 [1]; Western immunoblot, lenalidomide followed by EPO",increased
same,STAT5 phosphorylation,STAT5 [1]; lenalidomide alone,no effect
same,EPO-induced phosphorylation of STAT5,"STAT5 [2]; CD71+ erythroid precursors, Low- or Intermediate-1 risk MDS BM",increased
same,STAT5 phosphorylation,"STAT5 [2]; CD71+ erythroid precursors, lenalidomide alone",no effect
same,STAT5 phosphorylation delta (PD): increase in MFI for EPO-induced STAT5 phosphorylation with lenalidomide compared to EPO alone,"STAT5 [2]; CD71+ primary MDS cells, representative patient specimen",43.5 relative MFI units
same,increase in pSTAT5 MFI,"STAT5 [2]; EPO + lenalidomide compared to EPO alone, CD71+ cells",24%
same,growth of multipotent progenitors (CFU-GEMM),MDS BM-MNC; [6],unchanged
same,growth of myeloid progenitors (CFU-GM),MDS BM-MNC; [6],unchanged
same,concentration range over which BFU-E formation was enhanced,"MDS BM-MNC; two-hour exposure prior to methylcellulose culture with EPO, lower risk MDS BM-MNC",0.001 to 1.0 µM
same,total Csk,Csk,decrease
same,STAT5 DNA binding (nuclear translocation),STAT5 [3],greater DNA binding
same,RBC transfusion-independence,[4]; MDS-002 and MDS-005 trials,26%
same,median duration of RBC transfusion-independence,[4]; MDS-002 trial,10.2 months
same,median duration of RBC transfusion-independence,[4]; MDS-005 trial,7.75 months
same,MER rate among patients evaluable at week 16,"[5]; 116 evaluable patients, P=0.018",14.3%
same,"major erythroid response (MER) rate, ITT analysis","[5]; IWG 2006 MER, interim analysis of 163 patients, P=0.015",9.9%
same,median duration of response,[5]; MER responders,not reached
